Earlier results as cited in patent publication US7939102B2, “Controlled release formulation of lamotrigine” (Torrent Pharmaceuticals Ltd., priority 2003, dated 2011).

Columns and labels:
[1] = not given; remark: listed apart in the source
seizures = settings: acute and chronic studies in humans (Betts et al, 1991)

In the case of `Nc1nnc(-c2cccc(Cl)c2Cl)c(N)n1` [lamotrigine, 3,5-diamino-6(2,3-dichlorophenyl)-1,2,4-triazine], the “dose dependence of plasma concentrations” value (Ramsay RE, 1991) is listed as “vary linearly with the dose”, the “increase of plasma concentrations with concomitant sodium valproate” value (valproate reduces hepatic clearance, for a given dose) is listed as “approximately two fold” and the “plasma levels at which side effects were reported” value ([1]; Binnie et al., 1987, side effects only in patients above this level) is listed as “above 3 μg/ml”. For the same compound, the “incidence of side effects (dizziness, ataxia, diplopia, somnolence, headache, asthenia)” value ([1]; Ramsay RE, 1991) was “around 10%”, the “patients reporting headache and ataxia” value ([1]; first 18 weeks of treatment, at >10 μg/ml) was 100% and the “patients reporting nausea and vomiting” value ([1]; first 18 weeks of treatment, mean concentration of 6.00 to 7.99 μg/ml) was 16.7%. The “discontinuation of therapy due to rash” value ([1]; placebo-controlled trials) was 1%, the patients with rash ([1]; placebo-controlled trials) was 10% and the “patients removed from clinical trials because of adverse experiences” value ([1]; rash, nausea/vomiting, CNS-related events) was 8.6%. The “lamotrigine levels effective in controlling seizures” value (seizures) was 1 to 3 µg/mL.
